Experimental data reported in patent publication US9017692B2, “Antimicrobial agent, bacterial strain, biosynthesis, and methods of use” (priority 2011, dated 2015).

Tests used:
KPN.674 = test: MIC, CLSI broth microdilution, Gram-negative clinical isolates; format: cell-based, Klebsiella pneumoniae
Description: (§1) Plates were incubated at 35° C. for 24 h.
(§2) The activity of paenibacterin was also tested against clinical isolates of the following Gram-negative bacterial strains: four strains of the species Pseudomonas aeruginosa (PAE), three strains of the species Acinetobacter baumannii (ABA), two strains of the species Escherichia coli (ECO), and four strains of the species Klebsiella pneumoniae (KPN). Particularly, the strains of Gram-negative bacteria included polymyxin B-resistant (PMB-R) and polymyxin B-sensitive (PMB-S) strains of each above listed species. The MICs were determined using the above described CLSI broth microdilution method, in which the method was performed with both non-binding surface coated (NBS) and polystyrene (PS) 96-well plates (Tables 11 and 12, respectively). The MICs were generally lower in the NBS 96-well plates as compared to the PS 96-well plates.

PMB-R, KPN.2463 = test: as above; format: cell-based, Klebsiella pneumoniae
Description: as §1, §2

PMB-S, KPN.2461 = test: as above; format: cell-based, Klebsiella pneumoniae
Description: as §1, §2

[1] = test system: Listeria monocytogenes Scott A; test: MIC, CLSI broth microdilution, foodborne pathogens; format: cell-based
Description: as §1

[2] = test system: Escherichia coli O157:H7 EDL933; test: MIC, CLSI broth microdilution, foodborne pathogens; format: cell-based
Description: as §1

Yersinia enterocolitica [3] = test: MIC, CLSI broth microdilution, foodborne pathogens; format: cell-based
Description: as §1

[4] = test system: Bacillus cereus ATCC14579; test: MIC, CLSI broth microdilution, foodborne pathogens; format: cell-based
Description: as §1

L. innocua ATCC 33090 = test: Spot-on-lawn antimicrobial activity; format: cell-based, Listeria innocua; conditions: TSBYE
Description: (§3) Spot-on-lawn method [He, Z., et al., Appl. Environ. Microbiol., (2007) 73:168-178] was used for the bioassay of antimicrobial activity. Bacterial indicators were incubated at 37° C. for 24 h, except Pseudomonas putida, Clostridium difficile and methycillin resistant Staphylococcus aureus which were incubated for 48 h (Table 1). The indicator overlay was prepared by pouring 10 ml soft agar (seeded with 10 μL indicator culture) onto tryptose agar as basal medium in a petri dish. Purified antimicrobials were two-fold serially diluted and aliquots (10 μL each) were spotted onto the soft agar. The plates were incubated overnight and inspected for the presence of growth inhibition zones. Antimicrobial activity was expressed in arbitrary units (AU)/mL; this value is the reciprocal of the highest dilution displaying a zone of inhibition corresponding to 1 mL of the non-diluted antimicrobial preparation.
(§4) Purified paenibacterin was used for the antimicrobial spectrum test. Microorganisms tested for sensitivity to this compound included pathogenic (e.g., Salmonella Typhimurium, Escherichia coli O157:H7, Listeria monocytogenes, and Staphylococcus aureus) and non-pathogenic (e.g., Escherichia coli K-12, Pseudomonas putida, and Enterococcus faecalis) bacteria (Table 1).

L. monocytogenes = test: Antimicrobial spectrum test; format: cell-based, Listeria monocytogenes; conditions: gram-positive pathogens such as L. monocytogenes
Description: as §3, §4

[5] = Enzyme sensitivity test (residual antimicrobial activity, spot-on-lawn); format: physicochemical; conditions: 10 h
Description: Crude extracts of Paenibacillus thiaminolyticus OSY-SE were tested for sensitivity to heat and pH change while purified antimicrobial compounds were used for enzyme sensitivity tests. For thermal stability test, crude extract solutions were exposed to 37° C., 55° C. (in incubators) or 80° C. (in a water bath) for 24 h or autoclaved at 121° C. for 5 minutes. For pH stability test, crude extract solutions were diluted with 25 mM phosphate buffer (pH 7.0) and adjusted to pH 3.0, 5.0 and 9.0, followed by incubation for 12 h. Samples were neutralized to pH 7.0 before the antimicrobial activity test. Enzyme sensitivity tests were performed in 25 mM phosphate buffer (pH 7.0) with trypsin (type I, 12705 U/mg), lipase (type I, 9 U/mg), pronase (6.31 U/mg), α-glucosidase (type I, 100U/1.93 mg), lysozyme (46400 U/mg) and in 25 mM phosphate buffer (pH 8.0) with polymyxin acylase (16 U/mg). All enzymes were purchased from Sigma (St. Louis, Mo.) except polymyxin acylase (Wako Chemicals USA, Inc., Richmond, Va.). Digesting solutions were prepared at concentration of 0.1 mg/mL for polymyxin acylase and 0.5 mg/mL for others. These mixtures of enzyme and antimicrobial compound (40 μL of final volume) were incubated at 37° C. for 10 h. Quantitative spot-on-lawn bioassay was used to measure antimicrobial activities after these treatments.

[6] = test system: Enterococcus faecalis ATCC 29212; test: Spot-on-lawn antimicrobial activity; format: cell-based; conditions: MRS
Description: as §3, §4

[7] = test system: Listeria monocytogenes Scott A; test: Spot-on-lawn antimicrobial activity; format: cell-based; conditions: TSBYE
Description: as §3, §4

[8] = test system: Lactobacillus plantarum ATCC 8014; test: Spot-on-lawn antimicrobial activity; format: cell-based; conditions: MRS
Description: as §3, §4

[9] = test system: Bacillus cereus ATCC 14579; test: Spot-on-lawn antimicrobial activity; format: cell-based; conditions: TSBYE
Description: as §3, §4

[10] = test system: Clostridium difficile A515; test: Spot-on-lawn antimicrobial activity; format: cell-based; conditions: BHIYE
Description: as §3, §4

Yersinia enterocolitica [11] = test: Spot-on-lawn antimicrobial activity; format: cell-based; conditions: TSBYE
Description: as §3, §4

[12] = test system: Pseudomonas putida ATCC 45491; test: Spot-on-lawn antimicrobial activity; format: cell-based; conditions: TSBYE
Description: as §3, §4

[13] = test system: Staphylococcus aureus ATCC 6538; test: Spot-on-lawn antimicrobial activity; format: cell-based; conditions: TSBYE
Description: as §3, §4

L. lactis ATCC 11454 = test: Spot-on-lawn antimicrobial activity; format: cell-based; conditions: MRS
Description: as §3, §4

[14] = test system: Salmonella enterica ser. Typhimurium; test: Spot-on-lawn antimicrobial activity; format: cell-based; conditions: TSBYE
Description: as §3, §4

[15] = test system: E. coli O157:H7 ATCC 43889; test: Spot-on-lawn antimicrobial activity; format: cell-based, Escherichia coli; conditions: broth medium LB
Description: as §3, §4

E. coli O157:H7 EDL 933 = test: Spot-on-lawn antimicrobial activity; format: cell-based, Escherichia coli; conditions: broth medium LB
Description: as §3, §4

[16] = test system: L. monocytogenes OSY-8578; test: Spot-on-lawn antimicrobial activity; format: cell-based, Listeria monocytogenes; conditions: TSBYE
Description: as §3, §4

[17] = based on molecular weight of 1604 Da

Substance: paenibacterin
- Minimum inhibitory concentration (MIC) (KPN.674; NBS 96-well plates): 8 µg/mL
- Minimum inhibitory concentration (MIC) (KPN.674; PS 96-well plates): 32 µg/mL
- Minimum inhibitory concentration (MIC) (PMB-R, KPN.2463; KPN.2463 (PMB-R), NBS 96-well plates): 8 µg/mL
- Minimum inhibitory concentration (MIC) (PMB-R, KPN.2463; KPN.2463, PS 96-well plates): 32 µg/mL
- Minimum inhibitory concentration (MIC) (PMB-S, KPN.2461; KPN.2461 (PMB-S), NBS 96-well plates): 4 µg/mL
- Minimum inhibitory concentration (MIC) (PMB-S, KPN.2461; KPN.2461, PS 96-well plates): 32 µg/mL
- Minimum inhibitory concentration (MIC) Average ([1]; average of three replicates): 1.95 µg/mL
- Minimum inhibitory concentration (MIC) Average [1, 17]: 1.22 µM
- Minimum inhibitory concentration (MIC) Average ([2]; average of three replicates): 7.81 µg/mL
- Minimum inhibitory concentration (MIC) Average [2, 17]: 4.87 µM
- Minimum inhibitory concentration (MIC) Average (Yersinia enterocolitica [3]; average of three replicates): 3.26 µg/mL
- Minimum inhibitory concentration (MIC) Average (Yersinia enterocolitica [3]; [17]): 2.03 µM
- Minimum inhibitory concentration (MIC) Average ([4]; average of three replicates): 15.6 µg/mL
- Minimum inhibitory concentration (MIC) Average [4, 17]: 9.74 µM
- Antimicrobial activity (AU/ml) (L. innocua ATCC 33090): 1600 AU/ml
- Antimicrobial activity (in words) (L. monocytogenes): good activity
- Antimicrobial activity after enzyme treatment ([5]; lipase 0.5 mg/mL, pH 7.0, 37° C.): resistant
- Antimicrobial activity after enzyme treatment ([5]; lysozyme 0.5 mg/mL, pH 7.0, 37° C.): resistant
- Antimicrobial activity after enzyme treatment ([5]; polymyxin acylase 0.1 mg/mL, pH 8.0, 37° C.): activity was lost
- Antimicrobial activity after enzyme treatment ([5]; pronase 0.5 mg/mL, pH 7.0, 37° C.): activity was lost
- Antimicrobial activity after enzyme treatment ([5]; trypsin 0.5 mg/mL, phosphate buffer pH 7.0, 37° C.): resistant
- Antimicrobial activity after enzyme treatment ([5]; α-glucosidase 0.5 mg/mL, pH 7.0, 37° C.): resistant
- Antimicrobial activity (AU/ml) [6]: 0 AU/ml
- Antimicrobial activity (AU/ml) ([6]; listed as Paenibacterin): no activity
- Antimicrobial activity (AU/ml) [7]: 800 AU/ml
- Antimicrobial activity (AU/ml) [8]: 400 AU/ml
- Antimicrobial activity (AU/ml) [9]: 800 AU/ml
- Antimicrobial activity (AU/ml) [10]: 200 AU/ml
- Antimicrobial activity (AU/ml) (Yersinia enterocolitica [11]): 1600 AU/ml
- Antimicrobial activity (AU/ml) [12]: 400 AU/ml
- Antimicrobial activity (AU/ml) [13]: 100 AU/ml
- Antimicrobial activity (AU/ml) (L. lactis ATCC 11454): 800 AU/ml
- Antimicrobial activity (AU/ml) [14]: 400 AU/ml
- Antimicrobial activity (AU/ml) [15]: 1600 AU/ml
- Antimicrobial activity (AU/ml) (E. coli O157:H7 EDL 933): 1600 AU/ml
- Antimicrobial activity (AU/ml) [16]: 1600 AU/ml
